Entries after “also recorded” stand apart in the source; their conditions may differ.
How the values were obtained:
[1] = system: LNCaP-EnzaR cells; assay: Cell viability of LNCaP-EnzaR cells treated with R1881, enzalutamide, Dex with or without JQ1; format: cell-based, human; conditions: 3 days
Procedure: FIG. 3. […] LNCaP-EnzR cells were treated for three days of R1881 and enzalutamide (RE), concurrently with vehicle, Dex (D) or D+JQ1. Error bars=standard error of mean. The bars, from left to right, correspond to RE, RED, and RED-JQ 1.
BET-inhibition decreases Enza-R survival in vitro despite dexamethasone. It has been reported that the BET inhibitor JQ1 (100-500 nM) can decrease Enza-R cell survival, potentially through inhibition of ligand independent AR splice variants.

[2] = system: GR binding sites; assay: GR ChIP-seq in LAPC4 cells after addition of dexamethasone; format: cell-based, human
Excerpt: The inventors recently discovered that within PC cells, activated GR can compensate transcriptionally for a large set of genes. […] In a companion experiment using chromatin immunoprecipitation followed by deep sequeicing (ChIP-seq) in LAPC4 cells, the addition of dexamethasone to activate the GR leads to ˜700 new unique GR binding sites, approximately 70 of these new sites are within 5 kilobase (kb) of the transctiption start site of known genes. This argues that the majority of GR chromatin binding and subsequent gene regulation is through regulation at more distant enhancer sites rather then through direct promoter site binding. As bromodomain proteins such as BRD4 cooperate with known transcription factors, including the GR, at such enhancers to enable gene regulation, the inventors sought to establish whether BRD4 and GR cooperate to regulate pro-survival genes in Enza-R CRPC.

[3] = system: GR (NR3C1) target gene expression; assay: Dex-mediated GR target gene expression (KLK3, SGK1, FKBP5) with BET inhibition in LNCaP-EnzR cells; format: cell-based, human; conditions: three days R1881 and enzalutamide, then Dex or Dex+JQ1, relative to RE, p<0.05
Procedure: FIG. 2. Dex-mediated GR (NR3C1) target gene expression decreased with BETinhibition. LNCaP-EnzR cells were treated for three days of R1881 and enzalutamide (RE), after which cells stimulated with Dex (D) or Dex+JQ1. All conditions relative to RE. Changes all significant p<0.05 with no change in GR expression across conditions. Each series of bars from left to right corresponds to data from RE, RED, and RED-JQl.
The inventors have also verified that the principal BET-BRD proteins inhibited by a BET inhibitor (ABT-075), BRD4 and BRD3 are expressed within the Enza-R CRPC cell lines. […] It was next sought to explore whether for specific, known GR-regulated in PC cells genes (KLK3, SGK1, FKBPS) the BET inhibitor tool compound JQ1 was able to decrease GR mediated gene expression.

[4] = system: Enza-R cells; conditions: JQ1 100-500 nM; reported; cited from earlier work

SMILES | viable cell numbers ([1]; dexamethasone 100 nM with R1881 1 nM and enzalutamide 10 μM) | new unique GR binding sites [2] | GR mediated gene expression (KLK3, SGK1, FKBPS) [3] | viable cell numbers (Dex-mediated cell viability) ([1]; JQ1 500 nM with dexamethasone 100 nM, R1881 1 nM, enzalutamide 10 μM) | Enza-R cell survival [4]
C[C@@H]1C[C@H]2[C@@H]3CCC4=CC(=O)C=C[C@]4(C)[C@@]3(F)[C@@H](O)C[C@]2(C)[C@@]1(O)C(=O)CO [Dex, dexamethasone] | increases | ~700 | – | – | –
Cc1sc2c(c1C)C(c1ccc(Cl)cc1)=N[C@@H](CC(=O)OC(C)(C)C)c1nnc(C)n1-2 [JQ1] | – | – | significantly countered; also recorded: decreased | significantly decreased | can decrease
